According to patent US20250353855A1, “HETEROCYCLIC AND HETEROARYL COMPOUNDS FOR TREATING HUNTINGTON'S DISEASE” (PTC THERAPEUTICS, INC., priority 2022, published 2025):

test system: Endogenous Huntingtin Protein; experiment: Endogenous Huntingtin Protein Assay (ELISA-based MSD electrochemiluminescence); assay type: cell-based; settings: MSD plates coated with MW1 (expanded polyglutamine) or MAB2166 capture antibody; lysates
In short: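 Electrochemiluminescence sandwich ELISA for endogenous huntingtin: capture with MW1 (expanded polyglutamine) or MAB2166 antibody at 1 μg/mL, samples incubated overnight at 4° C. Detection with rabbit monoclonal #5656S then goat anti-rabbit SULFO-TAG antibody (each 0.25 μg/mL, 1 h room temperature), read on MSD imager.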

SMILES	IC50
Cc1nc2cc(O)c(-c3cc4ccn([C@@H]5CCNC(C)(C)[C@@H]5F)c4nn3)cc2o1 [Cpd 20, 6-{7-[(3R,4R)-3-fluoro-2,2-dimethylpiperidin-4-yl]-7H-pyrrolo[2,3-c]pyridazin-3-yl}-2-methyl-1,3-benzoxazol-5-ol]	< 100 nM
Cn1ncc2cc(O)c(-c3cc4c(nn3)N([C@H]3CC(C)(C)NC(C)(C)[C@H]3F)CC4)cc21 [Cpd 62, 6-{7-[(3S,4S)-3-fluoro-2,2,6,6-tetramethylpiperidin-4-yl]-6,7-dihydro-5H-pyrrolo[2,3-c]pyridazin-3-yl}-1-methyl-1H-indazol-5-ol]	< 100 nM
Cc1nc2cc(O)c(-c3cc4ccn([C@@H]5CCNC(C)(C)[C@@H]5F)c4nn3)cc2s1 [Cpd 19, 6-{7-[(3R,4R)-3-fluoro-2,2-dimethylpiperidin-4-yl]-7H-pyrrolo[2,3-c]pyridazin-3-yl}-2-methyl-1,3-benzothiazol-5-ol]	< 100 nM
CC1(C)C[C@H](N2CCc3cc(-c4cc5ncccc5cc4O)nnc32)[C@H](F)C(C)(C)N1 [Cpd 80, 7-{7-[(3S,4S)-3-fluoro-2,2,6,6-tetramethylpiperidin-4-yl]-6,7-dihydro-5H-pyrrolo[2,3-c]pyridazin-3-yl}quinolin-6-ol]	< 100 nM

same assay, conditions: MSD plates coated with MW1 (expanded polyglutamine) or MAB2166 capture antibody; lysates; read-out: IC50

IC50	SMILES
< 100 nM	Cn1nc2cc(O)c(-c3cc4c(nn3)N([C@H]3CC(C)(C)NC(C)(C)[C@H]3F)CC4)cc2n1 [Cpd 88, 6-{7-[(3S,4S)-3-fluoro-2,2,6,6-tetramethylpiperidin-4-yl]-6,7-dihydro-5H-pyrrolo[2,3-c]pyridazin-3-yl}-2-methyl-2H-benzotriazol-5-ol]
< 100 nM	Cc1nc2cc(-c3cc4ccn([C@H]5CC(C)(C)NC(C)(C)[C@H]5F)c4nn3)c(O)c(F)c2o1 [Cpd 102, 7-fluoro-5-{7-[(3S,4S)-3-fluoro-2,2,6,6-tetramethylpiperidin-4-yl]-7H-pyrrolo[2,3-c]pyridazin-3-yl}-2-methyl-1,3-benzoxazol-6-ol]
< 100 nM	Cn1cc2cc(O)c(-c3cc4c(nn3)N([C@H]3CC(C)(C)NC(C)(C)[C@H]3F)CC4)cc2n1 [Cpd 89, 6-{7-[(3S,4S)-3-fluoro-2,2,6,6-tetramethylpiperidin-4-yl]-6,7-dihydro-5H-pyrrolo[2,3-c]pyridazin-3-yl}-2-methyl-2H-indazol-5-ol]
< 100 nM	Cc1ccc2cc(-c3cc4c(nn3)N([C@H]3CC(C)(C)NC(C)(C)[C@H]3F)CC4)c(O)cc2n1 [Cpd 76, 6-{7-[(3S,4S)-3-fluoro-2,2,6,6-tetramethylpiperidin-4-yl]-6,7-dihydro-5H-pyrrolo[2,3-c]pyridazin-3-yl}-2-methylquinolin-7-ol]
< 100 nM	Cn1cc2cc(-c3cc4ccn([C@H]5CC(C)(C)NC(C)(C)[C@H]5F)c4nn3)c(O)c(F)c2n1 [Cpd 100, 7-fluoro-5-{7-[(3S,4S)-3-fluoro-2,2,6,6-tetramethylpiperidin-4-yl]-7H-pyrrolo[2,3-c]pyridazin-3-yl}-2-methyl-2H-indazol-6-ol]
< 100 nM	Cc1cc(=O)oc2cc(O)c(-c3cc4c(nn3)N([C@H]3CCNC5(CC5)C3)CC4)cc12 [Cpd 66, 6-{7-[(7S)-4-azaspiro[2.5]octan-7-yl]-6,7-dihydro-5H-pyrrolo[2,3-c]pyridazin-3-yl}-7-hydroxy-4-methyl-2H-1-benzopyran-2-one]
< 100 nM	COc1nc2cc(O)c(-c3cc4ccn([C@H]5CC(C)(C)NC(C)(C)[C@H]5F)c4nn3)cc2s1 [Cpd 96, 6-{7-[(3S,4S)-3-fluoro-2,2,6,6-tetramethylpiperidin-4-yl]-7H-pyrrolo[2,3-c]pyridazin-3-yl}-2-methoxy-1,3-benzothiazol-5-ol]
< 100 nM	Cc1nc2cc(O)c(-c3cc4c(nn3)N(C3CC5(CC5)NC5(CC5)C3)CC4)cc2o1 (stereo not drawn) [Cpd 72, 6-[7-(4-azadispiro[2.1.25.33]decan-9-yl)-6,7-dihydro-5H-pyrrolo[2,3-c]pyridazin-3-yl]-2-methyl-1,3-benzoxazol-5-ol]
< 100 nM	Cc1nc2cc(O)c(-c3cc4c(nn3)N([C@@H]3CC5(CCC5)NC[C@@H]3F)CC4)cc2s1 (single isomer, unassigned) [Cpd 61, 6-{7-[(7S,8R)-7-fluoro-5-azaspiro[3.5]nonan-8-yl]-6,7-dihydro-5H-pyrrolo[2,3-c]pyridazin-3-yl}-2-methyl-1,3-benzothiazol-5-ol or 6-{7-[(7R,8S)-7-fluoro-5-azaspiro[3.5]nonan-8-yl]-6,7-dihydro-5H-pyrrolo[2,3-c]pyridazin-3-yl}-2-methyl-1,3-benzothiazol-5-ol]
< 100 nM	CC1(C)C[C@H](N2CCc3cc(-c4cc5occc(=O)c5cc4O)nnc32)[C@H](F)C(C)(C)N1 [Cpd 82, 7-{7-[(3S,4S)-3-fluoro-2,2,6,6-tetramethylpiperidin-4-yl]-6,7-dihydro-5H-pyrrolo[2,3-c]pyridazin-3-yl}-6-hydroxy-4H-1-benzopyran-4-one]
< 100 nM	COc1cc(=O)oc2cc(O)c(-c3cc4c(nn3)N([C@H]3CC(C)(C)NC(C)(C)[C@H]3F)CC4)cc12 [Cpd 78, 6-{7-[(3S,4S)-3-fluoro-2,2,6,6-tetramethylpiperidin-4-yl]-6,7-dihydro-5H-pyrrolo[2,3-c]pyridazin-3-yl}-7-hydroxy-4-methoxy-2H-1-benzopyran-2-one]
< 100 nM	Cc1cc2cc(-c3cc4c(nn3)N([C@H]3CC(C)(C)NC(C)(C)[C@H]3F)CC4)c(O)cc2oc1=O [Cpd 73, 6-{7-[(3S,4S)-3-fluoro-2,2,6,6-tetramethylpiperidin-4-yl]-6,7-dihydro-5H-pyrrolo[2,3-c]pyridazin-3-yl}-7-hydroxy-3-methyl-2H-1-benzopyran-2-one]
< 100 nM	CC1(C)C[C@H](N2CCc3cc(-c4cc5ccc(=O)oc5cc4O)nnc32)[C@H](F)C(C)(C)N1 [Cpd 67, 6-{7-[(3S,4S)-3-fluoro-2,2,6,6-tetramethylpiperidin-4-yl]-6,7-dihydro-5H-pyrrolo[2,3-c]pyridazin-3-yl}-7-hydroxy-2H-1-benzopyran-2-one]

Further lines, the compound ahead of its results:

SMILES	IC50
CC1(C)C[C@H](n2ccc3cc(-c4cc5ccccc5cc4O)nnc32)[C@H](F)C(C)(C)N1 [Cpd 28, 3-{7-[(3S,4S)-3-fluoro-2,2,6,6-tetramethylpiperidin-4-yl]-7H-pyrrolo[2,3-c]pyridazin-3-yl}naphthalen-2-ol]	< 100 nM
CC1(C)C[C@H](n2ccc3cc(-c4cc5nc(C(F)(F)F)oc5cc4O)nnc32)[C@H](F)C(C)(C)N1 [Cpd 24, 5-{7-[(3S,4S)-3-fluoro-2,2,6,6-tetramethylpiperidin-4-yl]-7H-pyrrolo[2,3-c]pyridazin-3-yl}-2-(trifluoromethyl)-1,3-benzoxazol-6-ol]	100 to 500 nM
Cc1cnc2cc(-c3cc4c(nn3)N([C@H]3CC(C)(C)NC(C)(C)[C@H]3F)CC4)c(O)cc2n1 [Cpd 56, 7-{7-[(3S,4S)-3-fluoro-2,2,6,6-tetramethylpiperidin-4-yl]-6,7-dihydro-5H-pyrrolo[2,3-c]pyridazin-3-yl}-3-methylquinoxalin-6-ol]	< 100 nM
Cc1nc2cc(O)c(-c3cc4ccn([C@H]5CC(C)(C)NC(C)(C)[C@H]5F)c4nn3)cc2o1 [Cpd 3, 6-{7-[(3S,4S)-3-fluoro-2,2,6,6-tetramethylpiperidin-4-yl]-7H-pyrrolo[2,3-c]pyridazin-3-yl}-2-methyl-1,3-benzoxazol-5-ol]	< 100 nM
Cc1nc2cc(O)c(-c3cc4nnn(C5CC(C)(C)NC(C)(C)C5)c4nn3)cc2s1 [Cpd 27, 2-methyl-6-[3-(2,2,6,6-tetramethylpiperidin-4-yl)-3H-[1,2,3]triazolo[4,5-c]pyridazin-6-yl]-1,3-benzothiazol-5-ol]	< 100 nM
CC1(C)C[C@H](N2CCc3cc(-c4cc5nn[nH]c5cc4O)nnc32)[C@H](F)C(C)(C)N1 [Cpd 47, 5-{7-[(3S,4S)-3-fluoro-2,2,6,6-tetramethylpiperidin-4-yl]-6,7-dihydro-5H-pyrrolo[2,3-c]pyridazin-3-yl}-1H-benzotriazol-6-ol]	< 100 nM
Cc1nc2cc(O)c(-c3cc4ccn([C@@H]5C[C@H]6CC[C@H](N6)[C@@H]5F)c4nn3)cc2s1 (single isomer, unassigned) [Cpd 22, 6-{7-[(1S,2S,3R,5R)-2-fluoro-8-azabicyclo[3.2.1]octan-3-yl]-7H-pyrrolo[2,3-c]pyridazin-3-yl}-2-methyl-1,3-benzothiazol-5-ol or 6-{7-[(1R,2R,3S,5S)-2-fluoro-8-azabicyclo[3.2.1]octan-3-yl]-7H-pyrrolo[2,3-c]pyridazin-3-yl}-2-methyl-1,3-benzothiazol-5-ol]	< 100 nM
Cc1cnc2cc(-c3cc4ccn([C@H]5CC(C)(C)NC(C)(C)[C@H]5F)c4nn3)c(O)cc2c1 [Cpd 30, 7-{7-[(3S,4S)-3-fluoro-2,2,6,6-tetramethylpiperidin-4-yl]-7H-pyrrolo[2,3-c]pyridazin-3-yl}-3-methylquinolin-6-ol]	< 100 nM
Cn1cc2cc(O)c(-c3cc4ccn([C@H]5CC(C)(C)NC(C)(C)[C@H]5F)c4nn3)cc2n1 [Cpd 38, 6-{7-[(3S,4S)-3-fluoro-2,2,6,6-tetramethylpiperidin-4-yl]-7H-pyrrolo[2,3-c]pyridazin-3-yl}-2-methyl-2H-indazol-5-ol]	< 100 nM
Cc1cnc2cc(O)c(-c3cc4c(nn3)N([C@H]3CC(C)(C)NC(C)(C)[C@H]3F)CC4)cc2n1 [Cpd 55, 7-{7-[(3S,4S)-3-fluoro-2,2,6,6-tetramethylpiperidin-4-yl]-6,7-dihydro-5H-pyrrolo[2,3-c]pyridazin-3-yl}-2-methylquinoxalin-6-ol]	< 100 nM
